According to ChEMBL document CHEMBL2074338, “Characterization of organic anion transport inhibitors using cells stably expressing human organic anion transporters” (Eur J Pharmacol, 2001):

What follows are molecules tested against T1, Organic anion transporter 3 (Homo sapiens, UniProt Q8TCC7) (assay: TP_TRANSPORTER: inhibition of E1S uptake in OAT3-expressing S2 cells).
T1 sequence (Q8TCC7 whole entry): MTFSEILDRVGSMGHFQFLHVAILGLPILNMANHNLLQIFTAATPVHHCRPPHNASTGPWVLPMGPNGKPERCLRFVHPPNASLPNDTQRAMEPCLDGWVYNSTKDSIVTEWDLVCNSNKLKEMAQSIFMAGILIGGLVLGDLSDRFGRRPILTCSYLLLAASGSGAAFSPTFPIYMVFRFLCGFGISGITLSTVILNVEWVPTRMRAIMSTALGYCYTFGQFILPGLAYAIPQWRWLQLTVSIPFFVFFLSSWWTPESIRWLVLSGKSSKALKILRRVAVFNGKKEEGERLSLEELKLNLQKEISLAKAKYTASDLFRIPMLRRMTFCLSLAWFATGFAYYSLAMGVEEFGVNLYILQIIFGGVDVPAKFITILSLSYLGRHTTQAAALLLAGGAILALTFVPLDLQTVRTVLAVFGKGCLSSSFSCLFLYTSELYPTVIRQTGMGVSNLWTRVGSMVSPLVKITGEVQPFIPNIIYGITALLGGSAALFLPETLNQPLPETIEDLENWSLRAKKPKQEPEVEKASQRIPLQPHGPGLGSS
Type: functional, cell-based

| Ki [µM] | SMILES |
| --- | --- |
| 231 | CC1(C)C[C@@H]1C(=O)N/C(=C\CCCCSC[C@H](N)C(=O)O)C(=O)O [CILASTATIN] |
| 3.7 | CCCn1c(=O)c2[nH]c(C34CC5CC(CC3C5)C4)nc2n(CCC)c1=O [ROLOFYLLINE] |
| 48.3 | O=C(O)CCNC(=O)c1ccccc1 [BETAMIPRON] |
